From paper PMC10943645 (Current Research in Toxicology, 2024)

What was measured:
[1] = tested on: DNA; assay: Identification of B; format: in vivo, PIRC rats; settings: colon and liver tissues
[2] = Tissue disposition of B; format: in vivo, PIRC rats; settings: for proportion of reactive metabolite among B(a)P metabolite concentrations: colon sample, 50 µg B(a)P/kg bw (Fig. 5D)
[3] = tested on: SULT1A1; assay: Western blot of SULT1A1 protein in liver; format: in vivo, PIRC rats
[4] = tested on: GST; assay: Western blot of GST protein in liver; format: in vivo, PIRC rats
[5] = tested on: SULT1A1; assay: Western blot of SULT1A1 protein in colon; format: in vivo, PIRC rats
[6] = tested on: GST; assay: Western blot of GST protein in colon; format: in vivo, PIRC rats; settings: 25 µg B(a)P/kg bw + RD, among all the groups
[7] = tested on: malondialdehyde (MDA); assay: Lipid peroxidation; format: in vivo, PIRC rats; settings: B(a)P + WD
[8] = tested on: malondialdehyde (MDA); assay: Lipid peroxidation; format: in vivo, PIRC rats; settings: among the treatment groups, except in the case of 100 µg/kg
[9] = tested on: Caco-2 cells; settings: Western diet; ref Faria et al. (2020); cited from earlier work

## Oc1ccc2ccc3c4ccccc4cc4ccc1c2c43 [3-OH-B(a)P]
[1]
  contribution of B(a)P metabolite to DNA adduct formation: not found to contribute to adduct formation

## Oc1ccc2cc3ccc4cccc5ccc(c2c1)c3c45 [9-OH–B(a)P]
[1]
  contribution of B(a)P metabolite to DNA adduct formation: not found to contribute to adduct formation

## c1ccc2c(c1)cc1ccc3cccc4ccc2c1c34 [B(a)P, Benzo(a)pyrene]
[2]; plasma, liver, colon, 25, 50, 100 µg B(a)P/kg bw
  B(a)P metabolite concentrations versus dose: dose-dependent
[3]; 25 µg B(a)P/kg bw + WD vs RD
  SULT1A1 protein expression in liver, WD compared to RD: increased expression
[3]; 50 and 100 µg B(a)P/kg bw + RD or WD
  SULT1A1 protein expression in liver, RD or WD: no difference
[4]; 100 µg B(a)P/kg bw, RD or WD
  GST protein expression in liver, RD or WD: Very little difference
[4]; 25 and 50 µg B(a)P/kg bw + WD
  GST protein expression in liver, WD compared to counterparts: significant increase
[5]; 25 µg B(a)P/kg bw + RD and WD
  SULT1A1 protein expression in colon: negligible
[5]; 50 µg B(a)P/kg bw, both diets
  SULT1A1 protein expression in colon: increased
[5]; 100 µg B(a)P/kg bw + WD vs RD counterpart
  SULT1A1 protein expression in colon, WD compared to RD: significantly increased
[6]
  GST protein expression in colon: largest increase
[7]
  MDA production in colon: increased
[8]
  oxidative stress (MDA) in serum: no difference
[9]
  bioaccessibility of B(a)P with WD: higher bioaccessibility

## O=C1C=Cc2ccc3c4c(ccc1c24)C(=O)c1ccccc1-3 [B(a)P-3,6-dione]
[1]
  contribution of B(a)P metabolite to DNA adduct formation: not found to contribute to adduct formation
[2]
  proportion of reactive metabolite among B(a)P metabolite concentrations: high

## O=c1c2ccc3cccc4c(=O)cc(c5ccccc15)-c2c34 [B(a)P-6,12-dione]
[1]
  contribution of B(a)P metabolite to DNA adduct formation: not found to contribute to adduct formation
[2]
  proportion of reactive metabolite among B(a)P metabolite concentrations: high

## O[C@@H]1[C@@H]2O[C@@H]2c2c(cc3ccc4cccc5ccc2c3c45)[C@H]1O [BPDE, 7β,8α-dihydroxy-9α,10α-epoxy-7,8,9,10-tetrahydrobenzo[a]pyrene]
[1]
  contribution of B(a)P metabolite to DNA adduct formation: major adducts
